Measured values from paper PMC12381781, “Structural and functional insights into the selective inhibition of mutant tau aggregation by purpurin and oleocanthal in frontotemporal dementia” (Protein Science : A Publication of the Protein Society, 2025).
“Also recorded” adds a separate entry of the source.

Tests used:
[1] = test system: preformed R2R3 (N279K) fibrils; test: Elongation of preformed R2R3 (N279K) fibrils, ThT; format: biochemical; conditions: R2R3 N279K pre-aggregated 24 h, compound 10 μM
Description: Peptides were pre‐aggregated for 24 h with aggregation kinetics monitored by ThT fluorescence, after which 10 μM PUR or OLC was added, followed by an additional 24–30 h of incubation (Figure 4a). Aggregation kinetics was monitored by ThT fluorescence, and elongation was quantified as the AUC following compound addition, normalized to each replicate's maximum pre‐treatment fluorescence (Figure 4b). […] WT peptide fibril elongation was reduced to 15.5 ± 2.8% (PUR) and 45.2 ± 3.2% (OLC), and P301L peptide fibril elongation was limited to 31.8 ± 0.6% (PUR) and 85.6 ± 2.2% (OLC) (Figure 4b). Fluorescence microscopy imaging further confirmed the presence of reduced ThT‐positive aggregates following the addition of PUR and OLC (Figure S12). Similar inhibition trends, with PUR outperforming OLC, were also observed for V287I and N279K peptides (Figure S12).
Figure S13. […] (a) ThT fluorescence kinetics of pre-aggregated R2R3 (V287I and N279K ) tau peptides treated with PUR or OLC (10 µM). Peptides were first allowed to aggregate for 24 h, followed by compound addition and continued incubation for an additional 24-30 h. […] Curves are normalized to each replicate’s maximum pre-treatment ThT fluorescence. […] (b) Aggregation levels post-treatment, expressed as a percentage of control (untreated fibrils), calculated from the AUC after compound addition. […]

[2] = test system: Tau RD P301S FRET Biosensor cells; test: Biosensor cell seeding assay, aggregation products formed with compound (co-aggregation); format: cell-based; conditions: 100 nM transduced, 48 h
Description: Tau peptides were aggregated with or without PUR or OLC in a 7.4 pH aggregation buffer without ThT. After 48 h, the contents of each well were pooled to a final total volume of 120 μL. The concentration of the pooled Aggregation Reaction Products was measured using the Pierce™ BCA Protein Assay Kit (Thermo Fisher Scientific Inc., Cat. # 23225). The reaction products were standardized for cell transduction to a final concentration of 100 nM for both control and drug‐treated samples. The pooled aggregation mixture was sonicated using a Branson Ultrasonic™ Sonifier Cup Horns (Marshall Scientific, Hampton, NH, USA) at 30% amplitude (15 s ON and 15 s OFF for 1 min) to fragment larger aggregates into smaller ones, facilitating consistent transduction.
Tau RD P301S FRET Biosensor cells were plated at 5 × 10^3 cells per well in PhenoPlate 384‐well, black, optically clear flat‐bottom plates (Revvity; Part # 6057302) pre‐coated with 50 μg/mL Poly‐ᴅ‐Lysine (Sigma‐Aldrich, Cat. # P6407). After plating, cells were incubated for 30 min at room temperature to promote better cell spreading before returning the plates to the incubator.
The next day, cells were transduced with 100 nM of aggregation mixture, which were either: (i) prepared in the absence (control) or presence of 10 μM PUR or OLC for co‐aggregation studies (Figure 5), or (ii) prepared exclusively in the absence of compounds for post‐transduction treatment studies (Figure 6). The aggregation mixtures were premixed with 0.2 μL per well TurboFect™ Transfection Reagent (Thermo Fisher Scientific Inc., Cat. # R0533) in 10 μL Opti‐MEM™ (Thermo Fisher Scientific Inc., Cat. #11058021) and added to cells.
For co‐aggregation studies (Figure 5), cells were cultured for 48 h after transduction before processing for imaging. For post‐transduction treatment studies (Figure 6), cells were cultured for 24 h following transduction, then treated with PUR or OLC at concentrations ranging from 0 to 10 μM, and incubated for an additional 24 h.
In both experiments (Figures 5 and 6), cells were fixed after a total of 48 h with 2% paraformaldehyde (Electron Microscopy Services, Cat. #15714‐1 L) for 10 min at room temperature, washed once with 1× PBS, and stained with 10 μM Hoechst‐33342 nuclear dye (Invitrogen, Cat. #H21492) for 10–15 min. To preserve samples for imaging, 1% glycerol in deionized water was added to each well.
Cells were imaged on a Cell Voyager 7000S high‐content imaging system (Yokogawa, Tokyo, Japan) with a 20× objective. CFP/YFP inclusions of seeded tau were detected using a 488 nm laser line (Ex = 460–490 nm, Em = 500–550 nm), and Hoechst‐stained nuclei were detected using a 405 nm laser line (Ex = 360–400 nm, Em = 410–480 nm). At least 10–15 focal areas per well were imaged for each replicate. Image analysis was performed using Signals Image Artist (Revvity) to quantify the number of cells (Hoechst‐stained nuclei) and intracellular CFP/YFP inclusions. Total inclusions per well were normalized to cell confluence and are presented as normalized seeding for graphing.

[3] = R2R3 N279K aggregated with 10 μM compound
[4] = R2R3 P301L aggregated with 10 μM compound
[5] = R2R3 V287I aggregated with 10 μM compound
[6] = R2R3 WT aggregated with 10 μM compound

Structure (SMILES)	elongation of preformed fibrils [1]	intracellular seeding (CFP/YFP inclusions) by aggregation products [2, 3]	intracellular seeding (CFP/YFP inclusions) by aggregation products [2, 4]	intracellular seeding (CFP/YFP inclusions) by aggregation products [2, 5]	intracellular seeding (CFP/YFP inclusions) by aggregation products [2, 6]
C/C=C(/C=O)[C@@H](CC=O)CC(=O)OCCc1ccc(O)cc1 [OLC, oleocanthal]	inhibit the elongation	abolished the formation of species capable of inducing intracellular seeding; also recorded: significantly reduced seeding	abolished the formation of species capable of inducing intracellular seeding; also recorded: significantly reduced seeding	abolished the formation of species capable of inducing intracellular seeding; also recorded: near‐complete inhibition of seeding	effectively abolishing intracellular seeding
O=C1c2ccccc2C(=O)c2c(O)c(O)cc(O)c21 [PUR, purpurin]	inhibit the elongation	abolished the formation of species capable of inducing intracellular seeding; also recorded: significantly reduced seeding	abolished the formation of species capable of inducing intracellular seeding; also recorded: significantly reduced seeding	abolished the formation of species capable of inducing intracellular seeding; also recorded: near‐complete inhibition of seeding	did not affect the seeding competency
